Organism: Rattus norvegicus
Experiment: DrugMatrix - Regimen: Daily Repeat
Assay type: toxicity, organism-based, Sprague-Dawley
Design: regimen Daily Repeat, gender Male, age 6-8 weeks
Details: in vivo, po, route oral GAVAGE, vehicle .5 % CMC; for ABSOLUTE BASOPHIL / ABSOLUTE EOSINOPHIL / ABSOLUTE LYMPHOCYTE / ABSOLUTE MONOCYTE / ABSOLUTE SEGMENTED NEUTROPHIL / BASOPHIL / EOSINOPHIL / ERYTHROCYTE COUNT / HEMATOCRIT / HEMOGLOBIN / LEUKOCYTE COUNT / LYMPHOCYTE / MEAN CORPUSCULAR HEMOGLOBIN / MEAN CORPUSCULAR HEMOGLOBIN CONCENTRATION / MEAN CORPUSCULAR VOLUME / MONOCYTE / NEUTROPHIL / NUCLEATED RED BLOOD CELLS / PLATELET COUNT: tissue Blood; for ALANINE AMINOTRANSFERASE / ALBUMIN / ALKALINE PHOSPHATASE / ASPARTATE AMINOTRANSFERASE / BLOOD UREA NITROGEN / CARBON DIOXIDE / CHLORIDE / CHOLESTEROL / CREATINE PHOSPHOKINASE / CREATININE / GLUCOSE / LACTATE DEHYDROGENASE / LIPASE / PHOSPHORUS / POTASSIUM / SODIUM / TOTAL BILIRUBIN / TOTAL PROTEIN / URIC ACID: tissue Plasma
[1] = 40 mg/kg, 120 h, dose level Low, time 5 day
[2] = 1200 mg/kg, 72 h, dose level High, time 3 day
[3] = 1200 mg/kg, 120 h, dose level High, time 5 day

C[C@@](Cc1ccc(O)c(O)c1)(NN)C(=O)O.O [CARBIDOPA]
ABSOLUTE BASOPHIL [1]: 0 CELLS/uL
ABSOLUTE EOSINOPHIL [1]: 155.33 CELLS/uL
ABSOLUTE LYMPHOCYTE [1]: 12037.67 CELLS/uL
ABSOLUTE MONOCYTE [1]: 0 CELLS/uL
ABSOLUTE SEGMENTED NEUTROPHIL [1]: 1407 CELLS/uL
BASOPHIL [1]: 0%
EOSINOPHIL [1]: 1%
ERYTHROCYTE COUNT [1]: 5.47 x10E6/uL
HEMATOCRIT [1]: 34.83%
HEMOGLOBIN [1]: 13.23 G/DL
LEUKOCYTE COUNT [1]: 13.6 x10E3/uL
LYMPHOCYTE [1]: 88.33%
MEAN CORPUSCULAR HEMOGLOBIN [1]: 24.23 pg
MEAN CORPUSCULAR HEMOGLOBIN CONCENTRATION [1]: 38 G/DL
MEAN CORPUSCULAR VOLUME [1]: 63.7 fL
MONOCYTE [1]: 0%
NEUTROPHIL [1]: 10.67%
NUCLEATED RED BLOOD CELLS [1]: 0 /100WBC
PLATELET COUNT [1]: 1237.67 x10E3/uL
ALANINE AMINOTRANSFERASE [1]: 28.67 u/L
ALBUMIN [1]: 4.33 G/DL
ALKALINE PHOSPHATASE [1]: 366.33 u/L
ASPARTATE AMINOTRANSFERASE [1]: 83 u/L
BLOOD UREA NITROGEN [1]: 16 mg/dL
CARBON DIOXIDE [1]: 26 mmol/L
CHLORIDE [1]: 102.33 MEQ/L
CHOLESTEROL [1]: 65.67 mg/dL
CREATINE PHOSPHOKINASE [1]: 277.33 u/L
CREATININE [1]: 0.2 mg/dL
GLUCOSE [1]: 155.67 mg/dL
LACTATE DEHYDROGENASE [1]: 251 u/L
LIPASE [1]: 8.33 u/L
PHOSPHORUS [1]: 12.53 mg/dL
POTASSIUM [1]: 6.15 MEQ/L
SODIUM [1]: 144.4 MEQ/L
TOTAL BILIRUBIN [1]: 0.2 mg/dL
TOTAL PROTEIN [1]: 6.03 G/DL
URIC ACID [1]: 1.4 mg/dL
ABSOLUTE BASOPHIL [2]: 0 CELLS/uL
ABSOLUTE EOSINOPHIL [2]: 309.67 CELLS/uL
ABSOLUTE LYMPHOCYTE [2]: 11320 CELLS/uL
ABSOLUTE MONOCYTE [2]: 0 CELLS/uL
ABSOLUTE SEGMENTED NEUTROPHIL [2]: 1103.67 CELLS/uL
BASOPHIL [2]: 0%
EOSINOPHIL [2]: 2.33%
ERYTHROCYTE COUNT [2]: 5.55 x10E6/uL
HEMATOCRIT [2]: 35.43%
HEMOGLOBIN [2]: 13.47 G/DL
LEUKOCYTE COUNT [2]: 12.73 x10E3/uL
LYMPHOCYTE [2]: 88.67%
MEAN CORPUSCULAR HEMOGLOBIN [2]: 24.3 pg
MEAN CORPUSCULAR HEMOGLOBIN CONCENTRATION [2]: 38.03 G/DL
MEAN CORPUSCULAR VOLUME [2]: 63.83 fL
MONOCYTE [2]: 0%
NEUTROPHIL [2]: 9%
NUCLEATED RED BLOOD CELLS [2]: 0 /100WBC
PLATELET COUNT [2]: 1345.33 x10E3/uL
ALANINE AMINOTRANSFERASE [2]: 8.67 u/L
ALBUMIN [2]: 4.63 G/DL
ALKALINE PHOSPHATASE [2]: 300.67 u/L
ASPARTATE AMINOTRANSFERASE [2]: 64.67 u/L
BLOOD UREA NITROGEN [2]: 22.33 mg/dL
CARBON DIOXIDE [2]: 26 mmol/L
CHLORIDE [2]: 99 MEQ/L
CHOLESTEROL [2]: 92.33 mg/dL
CREATINE PHOSPHOKINASE [2]: 315 u/L
CREATININE [2]: 0.24 mg/dL
GLUCOSE [2]: 171.33 mg/dL
LACTATE DEHYDROGENASE [2]: 80 u/L
LIPASE [2]: 8.67 u/L
PHOSPHORUS [2]: 12.73 mg/dL
POTASSIUM [2]: 6.79 MEQ/L
SODIUM [2]: 143.93 MEQ/L
TOTAL BILIRUBIN [2]: 0.17 mg/dL
TOTAL PROTEIN [2]: 6.5 G/DL
URIC ACID [2]: 1.6 mg/dL
ABSOLUTE BASOPHIL [3]: 0 CELLS/uL
ABSOLUTE EOSINOPHIL [3]: 0 CELLS/uL
ABSOLUTE LYMPHOCYTE [3]: 11666 CELLS/uL
ABSOLUTE MONOCYTE [3]: 86.67 CELLS/uL
ABSOLUTE SEGMENTED NEUTROPHIL [3]: 847.33 CELLS/uL
BASOPHIL [3]: 0%
EOSINOPHIL [3]: 0%
ERYTHROCYTE COUNT [3]: 6.03 x10E6/uL
HEMATOCRIT [3]: 37.47%
HEMOGLOBIN [3]: 14.13 G/DL
LEUKOCYTE COUNT [3]: 12.6 x10E3/uL
LYMPHOCYTE [3]: 92.33%
MEAN CORPUSCULAR HEMOGLOBIN [3]: 23.43 pg
MEAN CORPUSCULAR HEMOGLOBIN CONCENTRATION [3]: 37.7 G/DL
MEAN CORPUSCULAR VOLUME [3]: 62.1 fL
MONOCYTE [3]: 0.67%
NEUTROPHIL [3]: 7%
NUCLEATED RED BLOOD CELLS [3]: 0 /100WBC
PLATELET COUNT [3]: 1184.67 x10E3/uL
ALANINE AMINOTRANSFERASE [3]: 6.67 u/L
ALBUMIN [3]: 4.57 G/DL
ALKALINE PHOSPHATASE [3]: 323.33 u/L
ASPARTATE AMINOTRANSFERASE [3]: 44 u/L
BLOOD UREA NITROGEN [3]: 20 mg/dL
CARBON DIOXIDE [3]: 28 mmol/L
CHLORIDE [3]: 101.33 MEQ/L
CHOLESTEROL [3]: 58.67 mg/dL
CREATINE PHOSPHOKINASE [3]: 151.67 u/L
CREATININE [3]: 0.21 mg/dL
GLUCOSE [3]: 157.67 mg/dL
LACTATE DEHYDROGENASE [3]: 98 u/L
LIPASE [3]: 8 u/L
PHOSPHORUS [3]: 11.57 mg/dL
POTASSIUM [3]: 6.41 MEQ/L
SODIUM [3]: 146.5 MEQ/L
TOTAL BILIRUBIN [3]: 0.17 mg/dL
TOTAL PROTEIN [3]: 6.27 G/DL
URIC ACID [3]: 1.5 mg/dL

Reference: ChEMBL document CHEMBL3885881, “DrugMatrix”
